Measured values from patent US20080113938A1, “ACCELERATOR FOR MINERAL ABSORPTION AND USE THEREOF” (KABUSHIKI KAISHA HAYASHIBARA SEIBUTSU KAGAKU KENKYUJO, priority 2003, published 2008).
Marks after values point to notes of the source that are not given here.

Test system: absorption of calcium, magnesium, phosphorus and iron in alimentary canal
Assay: Mineral amounts and absorption percentages in alimentary canal contents and excrement of rats
Type: in vivo, Wister rats
From the text: Forty of Wister rats weighing 110 to 120 g (five-weeks aged male, commercialized by Charles River Japan Inc., Yokohama, Japan) were bred with a feed containing ingredients (%) shown in Table 1 for one week in order to be familiarized. The familiarized rats were randomly divided into four groups with ten rats each. Each group was experimentally bred for eight weeks with either a feed without cyclic tetrasaccharide shown in Table 1 (hereinafter, it is called as “basic feed”), or another feed of basic feed supplemented with 1%, 2% or 5% on a dry solid basis, of cyclic tetrasaccharide in a crystalline anhydrous powder form with a purity of 99.5%, prepared in the following Example A-3. These basic feed and three kinds of feeds with cyclic tetrasaccharide were prepared to contain 44.75% of the total amount of cyclic tetrasaccharide and corn starch in each feed. From one week before the end of the breeding test, in order to determine the metabolism of calcium, magnesium, iron, sodium, potassium and phosphorus (hereinafter, may be called “minerals” in all), rats in the all groups were fed with the four types of feeds supplemented with 0.5% of chromium oxide as a non-absorbed marker for the minerals. The rats were bred at 25° C. in a manner of freely allowing to take feeds and water under a condition of 12 hours regular interval between of light and shade. After completion of experimental breeding, all rats were individually weighed to calculate the average of weight and further calculate the rate of increased weight for each group.
Two days before the end of the breeding test, rats were placed into a gauge for measuring metabolism to collect their excrement in two days. The resulting excrement was subjected to the measurement of the contents of cyclic tetrasaccharide, each mineral, and chromium. After the breeding test, the rats were anatomized in an anesthetized condition to take out their alimentary canals including jejunum, intestinum ileum, appendix and colon/rectum. After the resulting alimentary canals were weighed, their contents were also weighed and subjected to the measurement of the amount of cyclic tetrasaccharide, minerals and chromium. The rats, which had been taken out their alimentary canals, were dislocated at their cervical vertebrae and taken out their femurs from right legs. The resulting femurs were subjected to the measurement of the amount of ashes, calcium, magnesium and phosphorus. The following(s) explain the methods of quantitative analysis of cyclic tetrasaccharide and the methods of measurement of minerals and chromium.
Two grams of a feed was preciously weighed in a porcelain crucible, heated to carbonize, and heated at 600° C. to incinerate. After weighed, the resulting test samples were admixed with hydrochloric acid in a precious analysis grade (concentration of 20%, commercialized by Wako Pure Chemicals, Co., Ltd., Osaka, Japan) to give a final concentration of 1%. They were subjected to atomic absorption spectrometry (“Zeeman5100™”, commercialized by PerkinElmer); in the case of measurement of chromium, they were subjected to a flameless type one. In the case of measurement of phosphorus, they were subjected to usual molybdenum blue absorptiometry. On the other hand, 0.1 g of each of the contents of jejunum, intestinum ileum, appendix, colon/rectum, and excrement was subjected to wet-type incineration to prepare test samples similarly as in the above case of feed, and the test samples were quantified. The right femurs taken out from the anatomized rats were dried at 105° C. for 15 hours and measured as a dry weight. The resulting dried femurs were precisely weighed in a porcelain crucible, and incinerated similarly as in the case of the feed. The resultants were weighed and quantified for calcium, magnesium and phosphorus.

[1] = feed supplemented with 1% cyclic tetrasaccharide
[2] = feed supplemented with 2% cyclic tetrasaccharide
[3] = feed supplemented with 5% cyclic tetrasaccharide

Compound: OC[C@H]1O[C@@H]2OC[C@H]3O[C@H](O[C@@H]4[C@@H](O)[C@@H](OC[C@H]5O[C@H](O[C@H]([C@H]2O)[C@@H]1O)[C@H](O)[C@@H](O)[C@@H]5O)O[C@H](CO)[C@H]4O)[C@H](O)[C@@H](O)[C@@H]3O [cyclic tetrasaccharide, cyclo{>6)-α-D-glucopyranosyl-(1>3)-α-D-glucopyranosyl-(1>6)-α-D-glucopyranosyl-(1>3)-α-D-glucopyranosyl-(1>}]
- absorption rates of calcium, magnesium, phosphorus and iron in intestinum ileum and lower alimentary canal (against basic feed, 1%, 2%, 5% feeds): significantly increased in a dose-dependent manner
- Absorption percentage of calcium, appendix [1]: (83) %
- Absorption percentage of calcium, colon/rectum [1]: (86) %
- Absorption percentage of calcium, excrement [1]: (88) %
- Absorption percentage of calcium, intestinum ileum [1]: (79) %
- Absorption percentage of iron, appendix [1]: (74) %
- Absorption percentage of iron, colon/rectum [1]: (80) %
- Absorption percentage of iron, excrement [1]: (85) %
- Absorption percentage of iron, intestinum ileum [1]: (67) %
- Absorption percentage of magnesium, appendix [1]: (84) %
- Absorption percentage of magnesium, colon/rectum [1]: (86) %
- Absorption percentage of magnesium, excrement [1]: (88) %
- Absorption percentage of magnesium, intestinum ileum [1]: (80) %
- Absorption percentage of phosphorus, appendix [1]: (88) %
- Absorption percentage of phosphorus, colon/rectum [1]: (92) %
- Absorption percentage of phosphorus, excrement [1]: (95) %
- Absorption percentage of phosphorus, intestinum ileum [1]: (84) %
- Amount of Phosphorus, content of appendix [1]: 5.39 * mg/g
- Amount of Phosphorus, content of colon/rectum [1]: 5.18 * mg/g
- Amount of Phosphorus, content of intestinum ileum [1]: 3.45 * mg/g
- Amount of Phosphorus, excrement [1]: 17.74 * mg/g
- Amount of calcium, content of appendix [1]: 10.56 * mg/g
- Amount of calcium, content of colon/rectum [1]: 9.83 * mg/g
- Amount of calcium, content of intestinum ileum [1]: 6.02 * mg/g
- Amount of calcium, excrement [1]: 54.29 * mg/g
- Amount of iron, content of appendix [1]: 0.16 * mg/g
- Amount of iron, content of colon/rectum [1]: 0.14 * mg/g
- Amount of iron, content of intestinum ileum [1]: 0.10 * mg/g
- Amount of iron, excrement [1]: 0.71 * mg/g
- Amount of magnesium, content of appendix [1]: 2.24 * mg/g
- Amount of magnesium, content of colon/rectum [1]: 2.17 * mg/g
- Amount of magnesium, content of intestinum ileum [1]: 1.30 * mg/g
- Amount of magnesium, excrement [1]: 12.06 * mg/g
- Absorption percentage of calcium, appendix [2]: (88) %
- Absorption percentage of calcium, colon/rectum [2]: (90) %
- Absorption percentage of calcium, excrement [2]: (92) %
- Absorption percentage of calcium, intestinum ileum [2]: (84) %
- Absorption percentage of iron, appendix [2]: (77) %
- Absorption percentage of iron, colon/rectum [2]: (83) %
- Absorption percentage of iron, excrement [2]: (88) %
- Absorption percentage of iron, intestinum ileum [2]: (67) %
- Absorption percentage of magnesium, appendix [2]: (86) %
- Absorption percentage of magnesium, colon/rectum [2]: (88) %
- Absorption percentage of magnesium, excrement [2]: (90) %
- Absorption percentage of magnesium, intestinum ileum [2]: (80) %
- Absorption percentage of phosphorus, appendix [2]: (92) %
- Absorption percentage of phosphorus, colon/rectum [2]: (94) %
- Absorption percentage of phosphorus, excrement [2]: (97) %
- Absorption percentage of phosphorus, intestinum ileum [2]: (87) %
- Amount of Phosphorus, content of appendix [2]: 5.35 * mg/g
- Amount of Phosphorus, content of colon/rectum [2]: 4.10 * mg/g
- Amount of Phosphorus, content of intestinum ileum [2]: 4.17 * mg/g
- Amount of Phosphorus, excrement [2]: 10.27 * mg/g
- Amount of calcium, content of appendix [2]: 8.98 * mg/g
- Amount of calcium, content of colon/rectum [2]: 7.45 * mg/g
- Amount of calcium, content of intestinum ileum [2]: 5.61 * mg/g
- Amount of calcium, excrement [2]: 28.62 * mg/g
- Amount of iron, content of appendix [2]: 0.18 * mg/g
- Amount of iron, content of colon/rectum [2]: 0.14 * mg/g
- Amount of iron, content of intestinum ileum [2]: 0.12 * mg/g
- Amount of iron, excrement [2]: 0.49 * mg/g
- Amount of magnesium, content of appendix [2]: 2.40 * mg/g
- Amount of magnesium, content of colon/rectum [2]: 2.09 * mg/g
- Amount of magnesium, content of intestinum ileum [2]: 1.61 * mg/g
- Amount of magnesium, excrement [2]: 9.21 * mg/g
- Absorption percentage of calcium, appendix [3]: (93) %
- Absorption percentage of calcium, colon/rectum [3]: (94) %
- Absorption percentage of calcium, excrement [3]: (94) %
- Absorption percentage of calcium, intestinum ileum [3]: (89) %
- Absorption percentage of iron, appendix [3]: (78) %
- Absorption percentage of iron, colon/rectum [3]: (84) %
- Absorption percentage of iron, excrement [3]: (89) %
- Absorption percentage of iron, intestinum ileum [3]: (69) %
- Absorption percentage of magnesium, appendix [3]: (88) %
- Absorption percentage of magnesium, colon/rectum [3]: (91) %
- Absorption percentage of magnesium, excrement [3]: (93) %
- Absorption percentage of magnesium, intestinum ileum [3]: (84) %
- Absorption percentage of phosphorus, appendix [3]: (93) %
- Absorption percentage of phosphorus, colon/rectum [3]: (94) %
- Absorption percentage of phosphorus, excrement [3]: (97) %
- Absorption percentage of phosphorus, intestinum ileum [3]: (87) %
- Amount of Phosphorus, content of appendix [3]: 3.43 * mg/g
- Amount of Phosphorus, content of colon/rectum [3]: 3.06 * mg/g
- Amount of Phosphorus, content of intestinum ileum [3]: 2.84 * mg/g
- Amount of Phosphorus, excrement [3]: 8.98 * mg/g
- Amount of calcium, content of appendix [3]: 4.99 * mg/g
- Amount of calcium, content of colon/rectum [3]: 5.00 * mg/g
- Amount of calcium, content of intestinum ileum [3]: 3.48 * mg/g
- Amount of calcium, excrement [3]: 26.47 * mg/g
- Amount of iron, content of appendix [3]: 0.19 * mg/g
- Amount of iron, content of colon/rectum [3]: 0.13 * mg/g
- Amount of iron, content of intestinum ileum [3]: 0.10 * mg/g
- Amount of iron, excrement [3]: 0.66 * mg/g
- Amount of magnesium, content of appendix [3]: 2.03 * mg/g
- Amount of magnesium, content of colon/rectum [3]: 1.55 * mg/g
- Amount of magnesium, content of intestinum ileum [3]: 1.04 * mg/g
- Amount of magnesium, excrement [3]: 8.37 * mg/g
